Measurements taken from the kinase profiling compilation of Christmann-Franck et al. (2016).
Several values for one entry are separate records, joined by “and”; a condition that tells them apart may be missing. Equal values may be shown once.

Key:
Assay in all cases: radiometric filter-binding kinase assay, Kinase HotSpot
Conditions in all cases: compound 0.5 µM; ATP 10 µM
MAPK14 (human) = MAPK14 (human) (UniProt Q16539)
ROS1 (human) = ROS1 (human) (UniProt P08922)
CAMKK1 (human) = CAMKK1 (human) (UniProt Q8N5S9)
Chain of CAMKK1 (human) (Q8N5S9 whole entry, looked up): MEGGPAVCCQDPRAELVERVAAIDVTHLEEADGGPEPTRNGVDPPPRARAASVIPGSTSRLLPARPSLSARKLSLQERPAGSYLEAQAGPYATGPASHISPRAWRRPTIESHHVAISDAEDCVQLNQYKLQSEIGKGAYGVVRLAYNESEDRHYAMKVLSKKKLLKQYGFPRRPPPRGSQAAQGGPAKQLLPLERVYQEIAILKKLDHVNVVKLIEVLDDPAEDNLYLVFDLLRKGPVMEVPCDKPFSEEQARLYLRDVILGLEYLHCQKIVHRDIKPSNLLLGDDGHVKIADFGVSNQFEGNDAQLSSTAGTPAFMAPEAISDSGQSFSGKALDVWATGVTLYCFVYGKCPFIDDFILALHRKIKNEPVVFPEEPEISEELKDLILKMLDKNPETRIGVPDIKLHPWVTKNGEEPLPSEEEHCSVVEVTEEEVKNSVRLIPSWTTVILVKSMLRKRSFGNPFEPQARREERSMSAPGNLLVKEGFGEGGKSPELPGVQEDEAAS

EPHA1 (human) = EPHA1 (human) (UniProt P21709)
PAK7 (human) = PAK7 (human) (UniProt Q9P286)
Chain of PAK7 (human) (Q9P286 whole entry, looked up): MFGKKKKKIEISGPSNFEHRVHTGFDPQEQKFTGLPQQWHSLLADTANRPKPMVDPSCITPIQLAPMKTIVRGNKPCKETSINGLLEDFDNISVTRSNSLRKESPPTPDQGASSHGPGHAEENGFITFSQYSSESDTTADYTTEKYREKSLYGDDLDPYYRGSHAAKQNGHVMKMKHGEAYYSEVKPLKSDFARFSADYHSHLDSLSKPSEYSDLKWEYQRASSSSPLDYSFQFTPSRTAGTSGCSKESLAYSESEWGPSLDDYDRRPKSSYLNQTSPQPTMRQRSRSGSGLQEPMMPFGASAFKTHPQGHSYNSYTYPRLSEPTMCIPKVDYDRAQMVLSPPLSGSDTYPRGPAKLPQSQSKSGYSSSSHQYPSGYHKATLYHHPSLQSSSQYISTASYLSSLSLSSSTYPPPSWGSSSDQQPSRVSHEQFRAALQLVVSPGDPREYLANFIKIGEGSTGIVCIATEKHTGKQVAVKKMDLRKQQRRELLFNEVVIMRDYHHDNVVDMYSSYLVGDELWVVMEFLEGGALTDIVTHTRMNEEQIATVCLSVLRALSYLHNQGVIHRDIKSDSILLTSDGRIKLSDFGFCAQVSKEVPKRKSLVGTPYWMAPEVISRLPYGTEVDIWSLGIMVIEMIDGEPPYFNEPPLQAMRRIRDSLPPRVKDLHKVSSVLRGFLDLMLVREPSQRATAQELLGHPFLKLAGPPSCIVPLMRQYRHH

PNCK (human) = PNCK (human) (UniProt Q6P2M8)
RPS6KB1 (human) = RPS6KB1 (human) (UniProt P23443)
PKN1 (human) = PKN1 (human) (UniProt Q16512)
FGFR2 (human) = FGFR2 (human) (UniProt P21802)
MYO3B (human) = MYO3B (human) (UniProt Q8WXR4)
MAP3K2 (human) = MAP3K2 (human) (UniProt Q9Y2U5)
Chain of MAP3K2 (human) (Q9Y2U5 whole entry, looked up): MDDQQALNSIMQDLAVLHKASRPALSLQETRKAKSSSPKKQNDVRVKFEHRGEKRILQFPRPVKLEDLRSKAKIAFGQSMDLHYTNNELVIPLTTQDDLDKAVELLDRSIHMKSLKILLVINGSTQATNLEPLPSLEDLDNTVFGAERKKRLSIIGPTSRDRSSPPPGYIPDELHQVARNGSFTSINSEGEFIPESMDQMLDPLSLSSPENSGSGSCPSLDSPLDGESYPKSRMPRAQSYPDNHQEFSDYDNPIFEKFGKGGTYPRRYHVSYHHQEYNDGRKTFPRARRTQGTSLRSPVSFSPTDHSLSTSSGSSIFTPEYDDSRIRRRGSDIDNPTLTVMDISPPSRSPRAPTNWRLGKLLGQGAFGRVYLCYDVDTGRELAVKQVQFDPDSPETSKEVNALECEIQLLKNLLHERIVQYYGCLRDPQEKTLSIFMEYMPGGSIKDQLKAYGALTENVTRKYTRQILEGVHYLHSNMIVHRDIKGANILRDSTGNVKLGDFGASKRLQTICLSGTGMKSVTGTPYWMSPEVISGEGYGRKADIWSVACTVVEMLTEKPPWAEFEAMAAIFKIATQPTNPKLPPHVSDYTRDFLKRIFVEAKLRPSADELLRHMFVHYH

MAPK3 (human) = MAPK3 (human) (UniProt P27361)
ULK1 (human) = ULK1 (human) (UniProt O75385)
DYRK1B (human) = DYRK1B (human) (UniProt Q9Y463)
LTK (human) = LTK (human) (UniProt P29376)
FGR (human) = FGR (human) (UniProt P09769)
PRKCE (human) = PRKCE (human) (UniProt Q02156)
MAPKAPK3 (human) = MAPKAPK3 (human) (UniProt Q16644)
Chain of MAPKAPK3 (human) (Q16644 whole entry, looked up): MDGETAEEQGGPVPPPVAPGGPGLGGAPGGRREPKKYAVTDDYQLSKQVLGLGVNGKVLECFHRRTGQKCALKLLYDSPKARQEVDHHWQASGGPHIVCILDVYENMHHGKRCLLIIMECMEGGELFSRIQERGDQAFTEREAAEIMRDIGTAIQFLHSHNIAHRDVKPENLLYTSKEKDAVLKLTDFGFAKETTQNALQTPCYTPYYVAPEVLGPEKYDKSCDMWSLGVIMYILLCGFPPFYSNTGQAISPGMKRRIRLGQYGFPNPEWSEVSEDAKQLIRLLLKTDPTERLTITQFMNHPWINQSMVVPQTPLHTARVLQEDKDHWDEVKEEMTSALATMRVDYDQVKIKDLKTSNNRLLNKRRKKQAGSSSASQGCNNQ

GRK6 (human) = GRK6 (human) (UniProt P43250)
CHEK2 (human) = CHEK2 (human) (UniProt O96017)
FYN (human) = FYN (human) (UniProt P06241)
CAMKK2 (human) = CAMKK2 (human) (UniProt Q96RR4)
MYLK2 (human) = MYLK2 (human) (UniProt Q9H1R3)
MELK (human) = MELK (human) (UniProt Q14680)
PAK1 (human) = PAK1 (human) (UniProt Q13153)
PRKG1 (human) = PRKG1 (human) (UniProt Q13976)
Chain of PRKG1 (human) (Q13976 whole entry, looked up): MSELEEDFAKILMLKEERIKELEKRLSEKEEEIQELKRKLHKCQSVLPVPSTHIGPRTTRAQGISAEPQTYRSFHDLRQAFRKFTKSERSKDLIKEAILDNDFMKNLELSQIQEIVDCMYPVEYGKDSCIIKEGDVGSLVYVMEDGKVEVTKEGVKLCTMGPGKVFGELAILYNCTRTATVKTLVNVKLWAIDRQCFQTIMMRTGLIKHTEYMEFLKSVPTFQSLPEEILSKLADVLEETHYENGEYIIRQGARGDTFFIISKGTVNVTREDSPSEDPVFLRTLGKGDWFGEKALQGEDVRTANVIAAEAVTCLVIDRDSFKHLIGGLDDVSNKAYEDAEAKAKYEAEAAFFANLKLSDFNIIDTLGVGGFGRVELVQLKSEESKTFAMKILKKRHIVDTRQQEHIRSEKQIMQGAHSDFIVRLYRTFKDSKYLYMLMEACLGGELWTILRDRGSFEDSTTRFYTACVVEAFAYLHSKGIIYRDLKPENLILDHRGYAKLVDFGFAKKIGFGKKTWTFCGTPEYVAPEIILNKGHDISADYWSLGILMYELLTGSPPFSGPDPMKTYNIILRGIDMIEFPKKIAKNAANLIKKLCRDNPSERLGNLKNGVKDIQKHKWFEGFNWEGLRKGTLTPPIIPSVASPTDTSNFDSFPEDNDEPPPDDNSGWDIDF

CDK9 CCNK (human) = CDK9 CCNK (human) (UniProt O75909+P50750)
CDK5 CDK5R1 p35 (human) = CDK5 CDK5R1 p35 (human) (UniProt Q00535+Q15078)
PLK3 (human) = PLK3 (human) (UniProt Q9H4B4)
CAMK2G (human) = CAMK2G (human) (UniProt Q13555)
DAPK3 (human) = DAPK3 (human) (UniProt O43293)
Chain of DAPK3 (human) (O43293 whole entry, looked up): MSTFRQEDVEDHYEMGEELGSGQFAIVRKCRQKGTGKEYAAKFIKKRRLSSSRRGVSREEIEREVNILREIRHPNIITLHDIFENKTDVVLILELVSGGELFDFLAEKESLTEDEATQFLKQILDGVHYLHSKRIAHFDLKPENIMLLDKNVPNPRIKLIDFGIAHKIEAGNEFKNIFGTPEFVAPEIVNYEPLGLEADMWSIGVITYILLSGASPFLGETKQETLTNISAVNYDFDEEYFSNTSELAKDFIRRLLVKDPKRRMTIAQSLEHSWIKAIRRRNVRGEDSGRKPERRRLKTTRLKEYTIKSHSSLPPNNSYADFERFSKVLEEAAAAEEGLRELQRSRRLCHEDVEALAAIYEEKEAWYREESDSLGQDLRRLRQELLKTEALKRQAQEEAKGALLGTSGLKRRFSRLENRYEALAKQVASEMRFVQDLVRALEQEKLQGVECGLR

FRK (human) = FRK (human) (UniProt P42685)
Chain of FRK (human) (P42685 whole entry, looked up): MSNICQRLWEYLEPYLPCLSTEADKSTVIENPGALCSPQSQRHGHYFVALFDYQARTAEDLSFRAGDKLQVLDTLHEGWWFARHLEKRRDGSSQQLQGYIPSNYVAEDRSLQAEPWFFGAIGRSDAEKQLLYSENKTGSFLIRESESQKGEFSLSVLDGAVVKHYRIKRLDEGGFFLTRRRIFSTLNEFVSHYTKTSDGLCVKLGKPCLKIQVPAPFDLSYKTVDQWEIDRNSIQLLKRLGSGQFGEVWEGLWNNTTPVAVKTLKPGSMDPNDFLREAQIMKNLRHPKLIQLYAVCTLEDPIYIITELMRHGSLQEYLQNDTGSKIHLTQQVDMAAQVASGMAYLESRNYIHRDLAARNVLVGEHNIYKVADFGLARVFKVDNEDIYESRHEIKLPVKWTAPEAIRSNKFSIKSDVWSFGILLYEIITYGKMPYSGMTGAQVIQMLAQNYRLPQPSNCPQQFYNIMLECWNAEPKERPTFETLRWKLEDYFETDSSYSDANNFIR

CSNK1G2 (human) = CSNK1G2 (human) (UniProt P78368)
ULK3 (human) = ULK3 (human) (UniProt Q6PHR2)
CDK1 CCNB1 (human) = CDK1 CCNB1 (human) (UniProt P06493+P14635)
Chain of CDK1 CCNB1 (human) (P06493 whole entry, looked up): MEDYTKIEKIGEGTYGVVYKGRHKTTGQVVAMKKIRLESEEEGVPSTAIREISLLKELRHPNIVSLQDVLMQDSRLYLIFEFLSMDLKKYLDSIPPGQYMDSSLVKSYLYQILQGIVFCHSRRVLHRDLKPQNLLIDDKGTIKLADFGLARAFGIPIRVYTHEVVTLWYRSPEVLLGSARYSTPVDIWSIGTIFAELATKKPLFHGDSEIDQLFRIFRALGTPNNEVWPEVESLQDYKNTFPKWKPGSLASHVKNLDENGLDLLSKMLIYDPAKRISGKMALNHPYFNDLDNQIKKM
Chain of CDK1 CCNB1 (human) (P14635 whole entry, looked up): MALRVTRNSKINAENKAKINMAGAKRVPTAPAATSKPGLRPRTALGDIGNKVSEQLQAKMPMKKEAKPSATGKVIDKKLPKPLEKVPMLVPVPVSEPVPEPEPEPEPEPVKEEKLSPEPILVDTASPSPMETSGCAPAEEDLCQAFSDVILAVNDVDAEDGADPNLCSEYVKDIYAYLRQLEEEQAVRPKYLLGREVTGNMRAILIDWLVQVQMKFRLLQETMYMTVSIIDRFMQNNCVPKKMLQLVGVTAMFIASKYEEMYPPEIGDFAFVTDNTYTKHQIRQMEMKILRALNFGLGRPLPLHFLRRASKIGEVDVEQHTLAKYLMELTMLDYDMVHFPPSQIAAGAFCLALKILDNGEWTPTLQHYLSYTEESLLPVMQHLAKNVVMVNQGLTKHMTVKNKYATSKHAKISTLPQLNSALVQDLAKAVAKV

EPHA3 (human) = EPHA3 (human) (UniProt P29320)
MARK1 (human) = MARK1 (human) (UniProt Q9P0L2)
PRKCH (human) = PRKCH (human) (UniProt P24723)
GSK3B (human) = GSK3B (human) (UniProt P49841)
AURKA (human) = AURKA (human) (UniProt O14965)
Chain of AURKA (human) (O14965 whole entry, looked up): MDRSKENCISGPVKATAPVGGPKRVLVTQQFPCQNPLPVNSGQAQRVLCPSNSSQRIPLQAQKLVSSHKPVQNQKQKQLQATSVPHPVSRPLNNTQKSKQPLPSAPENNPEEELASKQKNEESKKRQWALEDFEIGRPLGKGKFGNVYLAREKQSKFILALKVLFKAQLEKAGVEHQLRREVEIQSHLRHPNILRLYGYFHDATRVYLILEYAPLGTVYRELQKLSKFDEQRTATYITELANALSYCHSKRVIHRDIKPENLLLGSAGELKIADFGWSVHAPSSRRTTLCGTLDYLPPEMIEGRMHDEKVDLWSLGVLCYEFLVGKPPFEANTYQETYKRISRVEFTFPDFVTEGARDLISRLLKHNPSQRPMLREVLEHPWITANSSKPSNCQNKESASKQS

NTRK1 (human) = NTRK1 (human) (UniProt P04629)
SYK (human) = SYK (human) (UniProt P43405)

Work on `N#C/C(=C(/N)Sc1ccc(N)cc1)c1ccccc1C(F)(F)F` yielded a residual activity (MAPK14 (human)) of 96%, a residual activity (ROS1 (human)) of 94.4% and a residual activity (CAMKK1 (human)) of 117%. For the same compound, the residual activity (EPHA1 (human)) was 100%, the residual activity (PAK7 (human)) was 104% and the residual activity (PNCK (human)) was 98.9%. For the same compound, the residual activity (RPS6KB1 (human)) was 102%, the residual activity (PKN1 (human)) was 104% and the residual activity (FGFR2 (human)) was 101%. For the same compound, the residual activity (MYO3B (human)) was 98.3%, the residual activity (MAP3K2 (human)) was 115% and the residual activity (MAPK3 (human)) was 116%. It also gave a residual activity (ULK1 (human)) of 99.6%, a residual activity (DYRK1B (human)) of 99.6% and a residual activity (LTK (human)) of 100%. The residual activity (FGR (human)) was 101%, the residual activity (PRKCE (human)) was 104% and the residual activity (MAPKAPK3 (human)) was 102%. It also gave a residual activity (GRK6 (human)) of 100%, a residual activity (CHEK2 (human)) of 97.7% and a residual activity (FYN (human)) of 97.1%. It also gave a residual activity (CAMKK2 (human)) of 85.5%, a residual activity (MYLK2 (human)) of 100% and a residual activity (MELK (human)) of 96.1%. The residual activity (PAK1 (human)) was 94.3%, the residual activity (PRKG1 (human)) was 100% and 98.8% and the residual activity (CDK9 CCNK (human)) was 98%. The residual activity (CDK5 CDK5R1 p35 (human)) was 103%, the residual activity (PLK3 (human)) was 96.9% and the residual activity (CAMK2G (human)) was 106%. It also gave a residual activity (DAPK3 (human)) of 102%, a residual activity (FRK (human)) of 102% and a residual activity (CSNK1G2 (human)) of 96.4%. The residual activity (ULK3 (human)) was 106%, the residual activity (CDK1 CCNB1 (human)) was 105% and the residual activity (EPHA3 (human)) was 105%. The residual activity (MARK1 (human)) was 99.9%, the residual activity (PRKCH (human)) was 96.4% and the residual activity (GSK3B (human)) was 102%. The residual activity (AURKA (human)) was 103%, the residual activity (NTRK1 (human)) was 109% and the residual activity (SYK (human)) was 99.3%.
Compound `CCOC(=O)c1c(C)[nH]c(/C=C2\C(=O)Nc3ccccc32)c1C` has a residual activity (MAPK14 (human)) of 134%, a residual activity (ROS1 (human)) of 99.1% and a residual activity (CAMKK1 (human)) of 95.3%. For the same compound, the residual activity (EPHA1 (human)) was 90.8%, the residual activity (PAK7 (human)) was 83.9% and the residual activity (PNCK (human)) was 88.6%. It also gave a residual activity (RPS6KB1 (human)) of 85.7%, a residual activity (PKN1 (human)) of 89.6% and a residual activity (FGFR2 (human)) of 97.9%. The residual activity (MYO3B (human)) was 74.1%, the residual activity (MAP3K2 (human)) was 108% and the residual activity (MAPK3 (human)) was 101%. For the same compound, the residual activity (ULK1 (human)) was 80.1%, the residual activity (DYRK1B (human)) was 105% and the residual activity (LTK (human)) was 66.9%. For the same compound, the residual activity (FGR (human)) was 79.3%, the residual activity (PRKCE (human)) was 98.2% and the residual activity (MAPKAPK3 (human)) was 91.7%. For the same compound, the residual activity (GRK6 (human)) was 90.8%, the residual activity (CHEK2 (human)) was 70.5% and the residual activity (FYN (human)) was 97.3%. For the same compound, the residual activity (CAMKK2 (human)) was 90.8%, the residual activity (MYLK2 (human)) was 74.7% and the residual activity (MELK (human)) was 87.4%. The residual activity (PAK1 (human)) was 99.9%, the residual activity (PRKG1 (human)) was 78.3% and 92.8% and the residual activity (CDK9 CCNK (human)) was 97.5%. For the same compound, the residual activity (CDK5 CDK5R1 p35 (human)) was 96.7%, the residual activity (PLK3 (human)) was 97.5% and the residual activity (CAMK2G (human)) was 97.6%. For the same compound, the residual activity (DAPK3 (human)) was 85.1%, the residual activity (FRK (human)) was 95.3% and the residual activity (CSNK1G2 (human)) was 84.8%. It also gave a residual activity (ULK3 (human)) of 76.7%, a residual activity (CDK1 CCNB1 (human)) of 100% and a residual activity (EPHA3 (human)) of 96.3%. It also gave a residual activity (MARK1 (human)) of 90.8%, a residual activity (PRKCH (human)) of 94% and a residual activity (GSK3B (human)) of 105%. The residual activity (AURKA (human)) was 90.4%, the residual activity (NTRK1 (human)) was 69.9% and the residual activity (SYK (human)) was 89.3%.
In the case of `CO[C@H]1CC2CC[C@@H](C)[C@@](O)(O2)C(=O)C(=O)N2CCCC[C@H]2C(=O)OC([C@H](C)C[C@@H]2CC[C@@H](O)[C@H](OC)C2)CC(=O)[C@H](C)/C=C(\C)[C@@H](O)[C@@H](OC)C(=O)[C@H](C)C[C@H](C)/C=C/C=C/C=C/1C` (stereo partly specified), the residual activity (MAPK14 (human)) is reported as 99.1%, the residual activity (ROS1 (human)) is reported as 85% and the residual activity (CAMKK1 (human)) is reported as 118%. The residual activity (EPHA1 (human)) was 99.5%, the residual activity (PAK7 (human)) was 106% and the residual activity (PNCK (human)) was 95.4%. The residual activity (RPS6KB1 (human)) was 92.6%, the residual activity (PKN1 (human)) was 96.2% and the residual activity (FGFR2 (human)) was 110%. For the same compound, the residual activity (MYO3B (human)) was 106%, the residual activity (MAP3K2 (human)) was 94.8% and the residual activity (MAPK3 (human)) was 104%. For the same compound, the residual activity (ULK1 (human)) was 87.9%, the residual activity (DYRK1B (human)) was 108% and the residual activity (LTK (human)) was 107%. The residual activity (FGR (human)) was 94.5%, the residual activity (PRKCE (human)) was 105% and the residual activity (MAPKAPK3 (human)) was 90.9%. The residual activity (GRK6 (human)) was 103%, the residual activity (CHEK2 (human)) was 99% and the residual activity (FYN (human)) was 109%. It also gave a residual activity (CAMKK2 (human)) of 115%, a residual activity (MYLK2 (human)) of 103% and a residual activity (MELK (human)) of 97.8%. It also gave a residual activity (PAK1 (human)) of 95.6%, a residual activity (PRKG1 (human)) of 91% and a residual activity (CDK9 CCNK (human)) of 106%. The residual activity (CDK5 CDK5R1 p35 (human)) was 99.5%, the residual activity (PLK3 (human)) was 96.2% and the residual activity (CAMK2G (human)) was 101%. The residual activity (DAPK3 (human)) was 104%, the residual activity (FRK (human)) was 106% and the residual activity (CSNK1G2 (human)) was 94.8%. The residual activity (ULK3 (human)) was 85.6%, the residual activity (CDK1 CCNB1 (human)) was 103% and the residual activity (EPHA3 (human)) was 109%. For the same compound, the residual activity (MARK1 (human)) was 98.8%, the residual activity (PRKCH (human)) was 104% and the residual activity (GSK3B (human)) was 109%. It also gave a residual activity (AURKA (human)) of 81.5%, a residual activity (NTRK1 (human)) of 98.4% and a residual activity (SYK (human)) of 97.1%.
